Laboratory results as given in patent US4910191A, “19-substituted progesterone derivatives useful as 19-hydroxylase inhibitors” (Merrell Dow Pharmaceuticals Inc., priority 1988, dated 1990).
pIC50: −log10 of the molar value.

How the values were obtained:
[1] = test system: weanling SHR rats; settings: administered to weanling SHR rats; Melby et al., 1987; cited from earlier work
[2] = times the potency of DOC; Kagawa et al., 1957; cited from earlier work
[3] = Funder et al., 1978; cited from earlier work
[4] = test system: bad bladder epithelia; settings: relative to aldosterone; Perrone et al., 1981; cited from earlier work
[5] = target: adrenal 19-hydroxylase; test: in vitro radioenzymatic assay, inhibition of adrenal 19-hydroxylase (19-hydroxylation of radiolabeled deoxycorticosterone); format: biochemical, rat, hamster, bovine, primate, or human
Method: The compounds of the present invention are useful as 19-hydroxylase inhibitors and antihypertensive agents. […] The test compounds are solubilized in buffer/solvent media at concentrations ranging from 1 nM to 50 μM, then added to assay tubes containing an adrenal mitochondrial suspension, i.e., rat, hamster, bovine, primate, or human, an NADPH-generating system, and radiolabeled deoxycorticosterone. The assay components are incubated for varying time intervals at 25°-37° C. and the reaction is quenched. The hydroxylated corticoids [i.e., 19--HO--DOC (19-hydroxydesoxycorticosterone), 18--HO--DOC(18-hydroxydeoxycorticosterone) and corticosterone] are extracted with organic solvent and isolated by standard chromatographic procedures.

C#CC[C@]12CCC(=O)C=C1CC[C@@H]1[C@@H]2CC[C@]2(C)C(=O)CC[C@@H]12 [10-(2-propynyl)estr-4-ene-3,17-dione]
development of hypertension [1]: retards the development of hypertension | levels of urinary free 19-norDOC [1]: reduces the levels of urinary free 19-norDOC

C[C@]12CC[C@H]3[C@@H](CCC4=CC(=O)CC[C@@H]43)[C@@H]1CC[C@@H]2C(=O)CO [Example 19-norDOC, 19-nordeoxycorticosterone]
Na-retaining activity, potency relative to DOC [2]: two to five | hypertensive activity compared to deoxycorticosterone (DOC) [3]: much higher hypertensive activity | stimulating Na^+ transport across bladder epithelia, potency vs aldosterone [4]: equipotent to aldosterone

C#CC[C@]12CCC(=O)C=C1CC[C@@H]1[C@@H]2CC[C@]2(C)[C@@H](C(=O)CO)CC[C@@H]12 [21-hydroxy-10-(2-propynyl)-19-norpregn-4-ene-3,20-dione]
pIC50 ([5]; adrenal mitochondrial suspension, NADPH-generating system, radiolabeled deoxycorticosterone, 25°-37° C., time-dependent, read-out: IC50 (time-dependent enzyme inhibition)): ~7.30 | affinity for the 19-hydroxylase active site relative to the natural substrate (DOC) ([5]; greater affinity than DOC): 12 times
